Results taken from US11104682B2, “Salts of TAM inhibitors” (Incyte Corporation, priority 2017, dated 2021).
pIC50: −log10 of the molar value. Structures can show the parent of a compound that is named as a salt.

What was measured:
[1] = molecular target: Tyro3 (Homo sapiens (Human), UniProt Q06418); test: TAM Enzymatic Assay (HTRF), Tyro3; format: biochemical; conditions: 0.366 nM Tyro3, ATP
Procedure: (§1) The kinase assay buffer contained 50 mM HEPES, pH7.5, 10 mM MgCl2, 1 mM EGTA, 0.01% NP-40 and 2 mM DTT. 0.1 ul test compounds dissolved in DMSO were transferred from compound plates to white 384-well assay plates (Greiner […] plates). The final concentration of DMSO was 1.25%. Enzyme solutions of 5.1 nM phosphor-Axl, or 0.0625 nM c-Mer (Carna Biosciences, 08-108), or 0.366 nM Tyro3 (Life Technologies, PR7480A) were prepared in assay buffer. A 1 mM stock solution of peptide substrate Biotin-[…]-amide SEQ ID NO: 1 (Quality Controlled Biochemicals, MA) dissolved in DMSO was diluted to 1 uM in assay buffer containing 2000 uM ATP. 4 ul enzyme solution (or assay buffer for the enzyme blank) was added to the appropriate wells in each plate, and then 4 ul/well substrate solution was added to initiate the reaction. The plate was protected from light and incubated at room temperature for 60 min. […] The plate was incubated for 1 h at room temperature, and HTRF (homogenous time resolved fluorescence) signal was measured on a PHERAstar FS plate reader (BMG labtech). Percentage of inhibition was calculated for each concentration and IC50 value was generated from curve fitting with GraphPad Prism software.

[2] = molecular target: Axl (Homo sapiens (Human), UniProt P30530); test: TAM Enzymatic Assay (HTRF), phosphor-Axl; format: biochemical; conditions: 5.1 nM phosphor-Axl, ATP
Procedure: Autophosphorylation of Axl was carried out by incubating the recombinant Axl protein (Life Technologies, PV4275) in buffer containing 50 mM Tris, pH7.5, 0.2 mg/ml Axl, 5 mM ATP, 20 mM MgCl2 and 2 mM DTT at room temperature for 1 hour.
as §1, with “reaction.” for “reaction. The plate was protected from light and incubated at room temperature for 60 min.”

[3] = molecular target: c-Mer (Homo sapiens (Human), UniProt Q12866); test: TAM Enzymatic Assay (HTRF), c-Mer; format: biochemical; conditions: 0.0625 nM c-Mer, ATP
Procedure: as §1

[4] = Solubility of Compound I maleate salt in solvents (saturated solution, HPLC); format: physicochemical; conditions: thermodynamic from solid; for solubility at 48 h: 25 °C, 25±1° C.; for solubility at 24 h: 50 °C, 50±1° C.
[5] = organic solvent or mixture, solvent 1,4-Dioxane
[6] = organic solvent or mixture, solvent 1-Propanol
[7] = organic solvent or mixture, solvent 2-Methoxyethanol
[8] = organic solvent or mixture, solvent Acetone
[9] = organic solvent or mixture, solvent Chloroform
[10] = organic solvent or mixture, solvent DMF
[11] = organic solvent or mixture, solvent DMSO
[12] = organic solvent or mixture, solvent Dichloromethane
[13] = organic solvent or mixture, solvent EtOAc
[14] = organic solvent or mixture, solvent EtOH
[15] = organic solvent or mixture, solvent Ethyl formate
[16] = organic solvent or mixture, solvent IPA
[17] = organic solvent or mixture, solvent IPAc
[18] = organic solvent or mixture, solvent MEK
[19] = organic solvent or mixture, solvent MIBK
[20] = organic solvent or mixture, solvent MTBE
[21] = organic solvent or mixture, solvent MeCN
[22] = organic solvent or mixture, solvent Methanol
[23] = organic solvent or mixture, solvent THF
[24] = organic solvent or mixture, solvent Toluene
[25] = organic solvent or mixture, solvent n-BuOH

Axl, sequence (P30530 26-894): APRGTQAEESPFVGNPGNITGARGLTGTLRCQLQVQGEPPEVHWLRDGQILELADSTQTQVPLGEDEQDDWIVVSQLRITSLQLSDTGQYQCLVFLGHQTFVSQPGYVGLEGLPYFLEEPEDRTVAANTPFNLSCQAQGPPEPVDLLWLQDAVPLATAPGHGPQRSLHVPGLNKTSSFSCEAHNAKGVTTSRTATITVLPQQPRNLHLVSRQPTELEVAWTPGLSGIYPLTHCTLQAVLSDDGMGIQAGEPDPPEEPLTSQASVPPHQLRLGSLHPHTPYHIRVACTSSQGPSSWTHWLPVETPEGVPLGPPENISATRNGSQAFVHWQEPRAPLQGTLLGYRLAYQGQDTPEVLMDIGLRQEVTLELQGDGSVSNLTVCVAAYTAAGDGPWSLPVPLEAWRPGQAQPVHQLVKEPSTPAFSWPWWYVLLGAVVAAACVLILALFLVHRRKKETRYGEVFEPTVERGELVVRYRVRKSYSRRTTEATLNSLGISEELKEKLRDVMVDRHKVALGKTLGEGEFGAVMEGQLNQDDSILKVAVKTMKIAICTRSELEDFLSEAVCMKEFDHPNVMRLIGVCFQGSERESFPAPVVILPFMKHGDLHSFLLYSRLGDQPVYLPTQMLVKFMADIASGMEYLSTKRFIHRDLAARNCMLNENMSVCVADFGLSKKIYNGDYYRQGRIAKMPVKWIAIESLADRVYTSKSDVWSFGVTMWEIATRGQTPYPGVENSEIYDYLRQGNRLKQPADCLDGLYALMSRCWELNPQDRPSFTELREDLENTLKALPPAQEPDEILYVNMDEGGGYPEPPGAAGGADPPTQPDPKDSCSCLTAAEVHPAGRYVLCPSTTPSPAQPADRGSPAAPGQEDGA
c-Mer, sequence (Q12866 21-999): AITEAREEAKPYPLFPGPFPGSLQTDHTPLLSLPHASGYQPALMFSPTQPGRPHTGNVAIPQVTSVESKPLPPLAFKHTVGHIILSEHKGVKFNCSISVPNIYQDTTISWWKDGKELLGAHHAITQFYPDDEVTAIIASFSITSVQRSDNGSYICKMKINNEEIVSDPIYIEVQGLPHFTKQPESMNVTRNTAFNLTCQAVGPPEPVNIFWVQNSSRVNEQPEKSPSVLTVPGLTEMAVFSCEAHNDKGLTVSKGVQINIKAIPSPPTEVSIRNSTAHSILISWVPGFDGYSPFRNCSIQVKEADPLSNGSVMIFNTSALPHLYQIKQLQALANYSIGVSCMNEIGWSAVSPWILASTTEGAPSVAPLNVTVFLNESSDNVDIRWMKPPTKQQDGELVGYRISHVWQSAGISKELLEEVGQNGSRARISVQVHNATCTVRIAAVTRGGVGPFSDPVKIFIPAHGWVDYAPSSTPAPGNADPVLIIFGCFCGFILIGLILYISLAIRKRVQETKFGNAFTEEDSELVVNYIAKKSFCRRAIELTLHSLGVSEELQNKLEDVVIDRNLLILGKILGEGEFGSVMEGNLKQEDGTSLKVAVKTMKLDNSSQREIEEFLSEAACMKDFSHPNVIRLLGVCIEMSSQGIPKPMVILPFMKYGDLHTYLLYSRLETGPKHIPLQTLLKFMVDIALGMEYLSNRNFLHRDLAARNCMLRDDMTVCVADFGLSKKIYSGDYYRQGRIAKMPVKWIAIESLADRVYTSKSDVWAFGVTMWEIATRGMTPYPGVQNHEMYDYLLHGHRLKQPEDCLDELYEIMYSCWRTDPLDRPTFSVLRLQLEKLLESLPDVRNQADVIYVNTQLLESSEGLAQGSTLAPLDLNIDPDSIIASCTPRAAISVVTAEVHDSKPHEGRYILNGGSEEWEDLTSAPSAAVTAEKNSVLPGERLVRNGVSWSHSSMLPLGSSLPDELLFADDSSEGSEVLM
Tyro3, sequence (Q06418 41-890): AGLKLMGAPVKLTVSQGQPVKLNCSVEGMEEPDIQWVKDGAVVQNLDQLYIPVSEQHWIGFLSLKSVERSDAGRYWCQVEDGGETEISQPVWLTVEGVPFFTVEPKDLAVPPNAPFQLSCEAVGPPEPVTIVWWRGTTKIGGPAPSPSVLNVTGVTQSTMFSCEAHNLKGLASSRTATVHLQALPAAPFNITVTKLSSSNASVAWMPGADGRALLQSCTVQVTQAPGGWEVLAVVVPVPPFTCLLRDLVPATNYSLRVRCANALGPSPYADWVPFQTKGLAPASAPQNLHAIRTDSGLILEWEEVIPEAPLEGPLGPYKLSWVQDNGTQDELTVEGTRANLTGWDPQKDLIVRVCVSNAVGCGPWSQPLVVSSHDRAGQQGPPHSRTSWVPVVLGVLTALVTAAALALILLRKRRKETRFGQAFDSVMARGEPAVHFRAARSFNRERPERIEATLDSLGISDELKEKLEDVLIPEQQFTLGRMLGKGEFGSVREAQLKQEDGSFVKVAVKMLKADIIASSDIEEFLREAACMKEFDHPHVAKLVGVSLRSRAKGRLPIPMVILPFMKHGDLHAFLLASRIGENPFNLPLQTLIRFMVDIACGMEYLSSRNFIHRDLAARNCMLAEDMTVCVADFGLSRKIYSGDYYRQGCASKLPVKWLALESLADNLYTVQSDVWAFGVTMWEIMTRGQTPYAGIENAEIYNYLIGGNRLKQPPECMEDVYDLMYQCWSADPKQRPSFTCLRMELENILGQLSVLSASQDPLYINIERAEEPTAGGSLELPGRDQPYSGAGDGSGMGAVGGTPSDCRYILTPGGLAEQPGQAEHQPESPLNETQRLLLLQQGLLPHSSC

With `CC(C)C(=O)N1CCC(c2cc(-c3ccc(NC(=O)c4cn(C(C)C)c(=O)n(-c5ccccc5)c4=O)cc3)c3c(N)ncnn23)CC1` [Compound II hemi-sulfuric acid salt, N-(4-(4-Amino-7-(1-isobutyrylpiperidin-4-yl)pyrrolo[1,2-f][1,2,4]triazin-5-yl)phenyl)-1-isopropyl-2,4-dioxo-3-phenyl-1,2,3,4-tetrahydropyrimidine-5-carboxamide hemisulfate] as the compound, how does the pIC50 [1] read?
Its pIC50 is 7.00 to 8.00.

And the pIC50 [2]?
The pIC50 was at least 8.30.

And the pIC50 [3]?
Its pIC50 is at least 8.30.

Which results are given for `CC(C)C(=O)N1CCC(c2cc(-c3ccc(NC(=O)c4cn(C(C)C)c(=O)n(-c5ccccn5)c4=O)cc3)c3c(N)ncnn23)CC1` [Compound I maleate salt, N-(4-(4-Amino-7-(1-isobutyrylpiperidin-4-yl)pyrrolo[1,2-f][1,2,4]triazin-5-yl)phenyl)-1-isopropyl-2,4-dioxo-3-(pyridin-2-yl)-1,2,3,4-tetrahydropyrimidine-5-carboxamide maleate]?
pIC50 [1]: 7.00 to 8.00; pIC50 [2]: ≥ 8.30; pIC50 [3]: ≥ 8.30; solubility at 48 h [4, 5]: 2310 µg/mL; solubility at 48 h [4, 6]: 440 µg/mL; solubility at 48 h ([4]; organic solvent or mixture, solvent 2% DCM/98% MeOH (V/V)): 1460 µg/mL; solubility at 48 h [4, 7]: 5960 µg/mL; solubility at 48 h ([4]; organic solvent or mixture, solvent 10% DCM/90% MeOH (V/V)): 1880 µg/mL; solubility at 48 h [4, 8]: 1680 µg/mL; solubility at 48 h [4, 9]: 6120 µg/mL; solubility at 48 h ([4]; organic solvent or mixture, solvent DCM/MeOH(2/1)): > 50000 µg/mL; solubility at 48 h [4, 10]: > 50000 µg/mL; solubility at 48 h [4, 11]: > 50000 µg/mL; solubility at 48 h [4, 12]: 24400 µg/mL; solubility at 48 h [4, 13]: 180 µg/mL; solubility at 48 h [4, 14]: 650 µg/mL; solubility at 48 h [4, 15]: 680 µg/mL; solubility at 48 h [4, 16]: 160 µg/mL; solubility at 48 h [4, 17]: 270 µg/mL; solubility at 48 h [4, 18]: 280 µg/mL; solubility at 48 h [4, 19]: 430 µg/mL; solubility at 48 h [4, 20]: 80 µg/mL; solubility at 48 h [4, 21]: 280 µg/mL; solubility at 48 h [4, 22]: 1640 µg/mL; solubility at 48 h [4, 23]: 920 µg/mL; solubility at 48 h [4, 24]: 180 µg/mL; solubility at 48 h [4, 25]: 210 µg/mL; solubility at 48 h ([4]; solvent Water): 20 µg/mL; solubility at 24 h [4, 5]: 4620 µg/mL; solubility at 24 h [4, 6]: 1310 µg/mL; solubility at 24 h [4, 7]: 14800 µg/mL; solubility at 24 h [4, 8]: 3050 µg/mL; solubility at 24 h [4, 9]: 13700 µg/mL; solubility at 24 h [4, 10]: > 50000 µg/mL; solubility at 24 h [4, 11]: > 50000 µg/mL; solubility at 24 h [4, 12]: 33700 µg/mL; solubility at 24 h [4, 13]: 400 µg/mL; solubility at 24 h [4, 14]: 1930 µg/mL; solubility at 24 h [4, 15]: 990 µg/mL; solubility at 24 h [4, 16]: 680 µg/mL; solubility at 24 h [4, 17]: 330 µg/mL; solubility at 24 h [4, 18]: 2190 µg/mL; solubility at 24 h [4, 19]: 740 µg/mL; solubility at 24 h [4, 20]: 100 µg/mL; solubility at 24 h [4, 21]: 680 µg/mL; solubility at 24 h [4, 22]: 3090 µg/mL; solubility at 24 h [4, 23]: 1630 µg/mL; solubility at 24 h [4, 24]: 200 µg/mL; solubility at 24 h [4, 25]: 1100 µg/mL; solubility at 24 h ([4]; solvent Water): 40 µg/mL
